Among the data in ChEMBL document CHEMBL1146913, “Symmetrical and unsymmetrical analogues of isoxyl; active agents against Mycobacterium tuberculosis” (2006) are Selectivity index and MIC99 values, retold here.

≈ marks a conversion by molar mass, not a printed value. A value given as a limit tells only on which side of the number the result lay.

In general, MIC99 refers to the lowest concentration that inhibits either 99% of growth or 99% of the strains tested, depending on the study. Read a high MIC99 as lower susceptibility.

One test deals with Vero. The test can be described thus: Selectivity index, IC50 against Vero cells/MIC against Mycobacterium. The test is classed as functional.
Test [1] has as its system Mycobacterium tuberculosis. The test is described as follows: Antibacterial activity against Mycobacterium tuberculosis H37Rv. The test is classed as functional.

Turning to `CCCCOc1ccc(NC(=S)Nc2ccc(SCCC)cc2)cc1`, the Selectivity index in the test with Vero was found to be 45.5. The same compound registered an MIC99 in test [1] of 0.2 µg/mL (≈ 0.534 µM). `CCCCOc1ccc(NC(=S)Nc2ccc(CCCC)cc2)cc1` registered a Selectivity index with Vero of 87. Besides, in test [1], the MIC99 is under 0.1 µg/mL. For `CCCCOc1ccc(NC(=S)Nc2ccc(SCC(C)C)cc2)cc1`, the MIC99 in test [1] was over 6.25 µg/mL.

For `CCCCOc1ccc(NC(=S)Nc2ccc(Cc3ccccc3)cc2)cc1`, the Selectivity index in the test on Vero came to 22.1. Further, the MIC99 in test [1] was found to be 0.39 µg/mL (≈ 0.999 µM). On to `CC(C)CSc1ccc(NC(=S)Nc2ccc(SCC(C)C)cc2)cc1`, for which, in the test on Vero, the Selectivity index was determined as 12.4. This compound also had an MIC99 in test [1] of 0.78 µg/mL (≈ 1.93 µM). The compound `CCCCOc1ccc(NC(=S)Nc2ccc(OCCC(C)C)cc2)cc1` yielded a Selectivity index with Vero of 89. For the same compound, in test [1], the MIC99 was under 0.1 µg/mL. Turning to `CCCOc1ccc(NC(=S)Nc2ccc(OCCC)cc2)cc1`, the Selectivity index with Vero is on record as 44. This compound gave an MIC99 in test [1] of 0.2 µg/mL (≈ 0.581 µM). The corresponding values for `CCCSc1ccc(NC(=S)Nc2ccc(Cc3ccccc3)cc2)cc1` are 5.28 and 1.56 µg/mL (≈ 3.97 µM). On the same counts, the results for `CC(C)CCOc1ccc(NC(=S)Nc2ccc(Cc3ccccc3)cc2)cc1` are 48 and 0.2 µg/mL (≈ 0.494 µM). For the compound `CCCCOc1ccc(NC(=S)Nc2ccc(OCC(C)C)cc2)cc1`, in the test with Vero, the Selectivity index is reported as 79.9. Besides, in test [1], the MIC99 is 0.1 µg/mL (≈ 0.268 µM). On to `CC(C)CCOc1ccc(NC(=S)Nc2ccc(OCC(C)C)cc2)cc1`, for which, in the test on Vero, the Selectivity index was 72. The compound further had an MIC99 in test [1] of 0.39 µg/mL (≈ 1.01 µM).

In the test with Vero, `CCCCc1ccc(NC(=S)Nc2ccc(OCCC)cc2)cc1` yielded a Selectivity index of 100. For the same compound, the MIC99 in test [1] was under 0.1 µg/mL. `CC(C)CCOc1ccc(NC(=S)Nc2ccc(OCCC(C)C)cc2)cc1` [TIOCARLIDE]: the Selectivity index with Vero is listed as 82. This compound also had an MIC99 in test [1] of 2 µg/mL (≈ 4.99 µM).
